Assay results from US20140378474A1, “5-membered heteroarylcarboxamide derivatives as plasma kallikrein inhibitors” (NOVARTIS AG, priority 2012, published 2014).

molecular target: T1, Human plasma kallikrein (Homo sapiens, UniProt P03952); assay: In vitro inhibition of plasma kallikrein (fluorogenic substrate DPro-Phe-Arg-(Rh110)-γGlu-OH); assay type: biochemical; conditions: human plasma kallikrein nominally 12 pM, substrate 0.5 μM, 1 hour pre-incubation at room temperature, read after 1 hour (t=60 min)
T1 construct: purchased Kordia (Leiden, Netherlands) batch HPKA 1303
Experimental: In Vitro Inhibition of Plasma Kallikrein
The fluorogenic substrate DPro-Phe-Arg-(Rh110)-γGlu-OH (where DPro is the amino acid d-proline, Rh110 is the fluorophore rhodamine 110 and γGlu is a […] linked to Rh110 via the gamma-carbonyl function; from Biosyntan, Berlin, Germany), being based on the chromogenic substrate described in Gallimore et al (Thromb Res 25, 293-298, 1982), was dissolved in DMSO at 5 mM and stored at −80° C. All other chemicals were of analytical grade.
Human plasma kallikrein was purchased from Kordia (Leiden, Netherlands, batch HPKA 1303) in lyophilized form.
The protein solution was reconstituted from the lyophilisate by addition of deinonized water. The resulting stock solution comprised the protein at a concentration of 0.17 mg/ml in 4 mM sodium acetate/HCl and 150 mM NaCl at pH 5.3. The stock solution was stored in aliquots at −80° C. Enzymatic reactions were conducted in ‘assay buffer’, comprising 50 mM Hepes/NaOH at pH 7.8, 150 mM NaCl, 1 mM EDTA and 0.05% (w/v) CHAPS.
Both, enzyme and substrate were diluted in assay buffer.
All protein and peptide containing solutions were handled in siliconized tubes (Life Systems Design, Merenschwand, Switzerland). The compound solutions as well as the enzyme and the substrate solutions were transferred to 384-well plates (black Cliniplate; cat. no. 95040020 Labsystems Oy, Finland) by means of a CyBi-Well 96-channel pipettor (CyBio AG, Jena, Germany). Plate measurements were conducted by the means of a Safire2 reader (TECAN, Maennedorf, Switzerland). The Safire2 is a monochomator-based instrument and wavelengths of 485 nm and 535 nm were taken for fluorescence excitation and emission acquisition, respectively. The bandwidths were set to 10 nm in both the excitation and the emission path. The fluorescence in each well was excited by three flashes per measurement.
For the determination of IC50 values, the assays were performed at room temperature in 384-well plates with a total assay volume of 25.25 μl per well.
The test compound was dissolved in 90% (v/v) DMSO/water. For the assays, […] of the 90% (v/v) DMSO/water solution or compound solution were added per well, followed by the addition of 12.5 μl protease solution (protease in assay buffer). The final assay concentration of the human plasma kallikrein was nominally 12 pM, the 11 compound concentrations in the dilution series were in the range form 1 nM to 100 μM. After 1 hour of pre-incubation at room temperature, the reactions were started by the addition of 12.5 μl substrate solution (in assay buffer, final assay concentration was 0.5 μM). After the addition of the substrate solution, the final DMSO concentration in the assay was 0.9% (v/v). The effect of the compound on the enzymatic activity was obtained from the linear part of the progress curves and determined after 1 hour (t=60 min). The IC50 value was calculated from the plot of percentage of inhibition vs. inhibitor concentration by a logistics fit according to the following equation:
where y is the %-inhibition at the inhibitor concentration, x. A1 is the lowest inhibition value, i.e. 0%, and A2 the maximum inhibition value, i.e. 100%. The exponent, p, is the Hill coefficient. The curve fitting was conducted with the non-linear regression routine of the analysis software Origin 7.5SR6 (Origin Lab Corporation).

T1 sequence (P03952 391-638 limits assumed): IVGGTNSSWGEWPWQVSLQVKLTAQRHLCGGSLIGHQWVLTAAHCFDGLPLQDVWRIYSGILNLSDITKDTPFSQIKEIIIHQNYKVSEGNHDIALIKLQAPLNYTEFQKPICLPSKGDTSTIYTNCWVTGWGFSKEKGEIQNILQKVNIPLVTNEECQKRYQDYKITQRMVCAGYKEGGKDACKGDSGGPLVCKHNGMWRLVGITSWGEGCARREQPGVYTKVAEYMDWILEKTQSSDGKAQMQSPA
T1 sequence (P03952 20-390 partner limits assumed): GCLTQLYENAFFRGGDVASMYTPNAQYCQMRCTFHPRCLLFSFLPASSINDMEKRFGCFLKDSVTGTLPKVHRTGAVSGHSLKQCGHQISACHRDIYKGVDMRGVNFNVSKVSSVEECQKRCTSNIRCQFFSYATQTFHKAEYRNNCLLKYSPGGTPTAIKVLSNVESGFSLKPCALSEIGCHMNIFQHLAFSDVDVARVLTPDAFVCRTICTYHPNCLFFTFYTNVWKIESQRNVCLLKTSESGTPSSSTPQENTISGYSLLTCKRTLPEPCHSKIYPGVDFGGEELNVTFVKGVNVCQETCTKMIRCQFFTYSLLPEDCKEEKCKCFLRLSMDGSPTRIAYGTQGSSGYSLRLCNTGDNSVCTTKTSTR

SMILES | IC50 [nM]
COc1ccc(Cn2cc(C(=O)NCc3n[nH]c4ccc(Cl)cc34)cn2)cc1OC [Example 24, N-((5-chloro-1H-indazol-3-yl)methyl)-1-(3,4-dimethoxybenzyl)-1H-pyrazole-4-carboxamide] | 285
COc1cccc(Cn2cc(C(=O)NCc3n[nH]c4ccc(Cl)cc34)cn2)c1 [Example 26, N-((5-chloro-1H-indazol-3-yl)methyl)-1-(3-methoxybenzyl)-1H-pyrazole-4-carboxamide] | 429
Cn1nnc2cc(Cn3cc(C(=O)NCc4cccc(Cl)c4)cn3)ccc21 [N-(3-chlorobenzyl)-1-((1-methyl-1H-benzo[d][1,2,3]triazol-5-yl)methyl)-1H-pyrazole-4-carboxamide] | > 30000
COc1ccc(Cn2cc(C(=O)NCc3n[nH]c4ccc(Cl)cc34)cn2)cc1 [Example 11, N-((5-chloro-1H-indazol-3-yl)methyl)-1-(4-methoxybenzyl)-1H-pyrazole-4-carboxamide] | 353
